From patent publication US10501518B2 (priority 2013, dated 2019)
Read-outs that look alike come from different tables or passages of the source. Starred links: 1 amine or outer side, 2 acyl side, 3 side chain; linkers in the order of their positions; H or OH if unused. Non-standard residues stand in square brackets, D forms with d. Residues, ends and D or L forms follow the SMILES beside them. *: point of attachment. NH(1S,2S-2-CONH2-cPent) = NC(=O)[C@H]1CCC[C@@H]1N*; X12 = O=C([C@H]1CCC[C@@H]1N[*:1])[*:2]; X13 = O=C([C@H]1CNC[C@@H]1N[*:1])[*:2]; ACPC(1S,2S) = N[C@H]1CCC[C@@H]1C(=O)*; Aib = CC(C)(N)C(=O)O

Legend:
WT rat PTHR-1 = target: T1, WT rat PTHR-1 (Rattus norvegicus, UniProt P25961); experiment: cAMP GloSensor dose-response in GR-35 cells expressing rat PTHR-1; format: cell-based; details: Table 7; GR-35 cells, 12-16 minutes after ligand addition; mean ± SEM
T1 construct: expressed in transfected cells
T1 sequence (P25961 27-591): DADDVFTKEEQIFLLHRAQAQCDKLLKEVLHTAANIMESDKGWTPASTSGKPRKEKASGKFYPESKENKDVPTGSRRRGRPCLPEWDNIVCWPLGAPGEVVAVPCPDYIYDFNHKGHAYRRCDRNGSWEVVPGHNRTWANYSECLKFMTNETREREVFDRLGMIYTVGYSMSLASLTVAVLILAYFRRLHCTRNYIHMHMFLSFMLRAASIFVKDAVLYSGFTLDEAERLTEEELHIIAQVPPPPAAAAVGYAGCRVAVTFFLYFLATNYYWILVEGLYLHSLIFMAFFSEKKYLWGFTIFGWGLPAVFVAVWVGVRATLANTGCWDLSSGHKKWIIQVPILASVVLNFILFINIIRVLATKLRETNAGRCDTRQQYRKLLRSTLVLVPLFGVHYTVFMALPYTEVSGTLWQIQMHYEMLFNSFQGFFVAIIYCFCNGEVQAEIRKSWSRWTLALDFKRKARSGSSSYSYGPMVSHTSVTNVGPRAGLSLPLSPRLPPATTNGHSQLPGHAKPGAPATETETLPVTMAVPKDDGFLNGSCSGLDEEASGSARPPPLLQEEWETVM
Experimental: FIGS. 9A, 9B, and 9C constitute a series of graphs depicting cAMP responses in GR-35 cells expressing rat PTHR-1-WT. […] Data are means (±SEM) of n>4 experiments, each performed in duplicate.
(§1) For cAMP dose-response assays, monolayers of confluent HEK 293 cells were pre-incubated with buffer containing d-luciferin (0.5 mM) in 96 well plates at room temperature until a stable baseline level of luminescence was established (30 min). Varying concentrations of agonist were then added, and the time course of luminescence response was recorded using a Perkin Elmer plate reader following α/β-peptide addition.

WT human PTHR-1 = target: T2, WT human PTHR-1 (Homo sapiens, UniProt Q03431); experiment: cAMP GloSensor dose-response in GP-2.3 cells expressing human PTHR-1; format: cell-based; details: for cAMP (hPTHR-1) Max: Table 1, luminescence counts per second relative to PTH(1-34); for cAMP (hPTHR-1) Max / Max: 12-16 minutes after ligand addition; for Max: Table 6, GP-2.3 cells, mean ± SEM
T2 construct: bioactivity of the resulting compound in full-length hPTHR-1 and a truncated version; expressed in transfected cells
T2 sequence (Q03431 27-593): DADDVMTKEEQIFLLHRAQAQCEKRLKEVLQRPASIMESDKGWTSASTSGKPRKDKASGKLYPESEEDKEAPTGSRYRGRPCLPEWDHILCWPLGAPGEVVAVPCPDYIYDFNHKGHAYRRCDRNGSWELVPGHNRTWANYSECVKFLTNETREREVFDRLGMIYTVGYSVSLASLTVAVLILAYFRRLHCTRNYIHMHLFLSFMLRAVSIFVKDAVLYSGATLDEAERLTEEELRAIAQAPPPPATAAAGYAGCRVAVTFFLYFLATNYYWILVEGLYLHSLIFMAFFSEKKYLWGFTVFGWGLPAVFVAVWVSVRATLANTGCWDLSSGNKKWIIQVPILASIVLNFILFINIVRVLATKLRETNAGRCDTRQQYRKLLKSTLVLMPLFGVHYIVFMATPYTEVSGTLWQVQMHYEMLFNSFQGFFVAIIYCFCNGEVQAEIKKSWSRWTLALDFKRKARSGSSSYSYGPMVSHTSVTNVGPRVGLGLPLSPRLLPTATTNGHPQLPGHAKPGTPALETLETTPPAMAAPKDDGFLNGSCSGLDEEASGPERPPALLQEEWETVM
Experimental: FIGS. 8A, 8B, and 8C constitute a series of graphs depicting cAMP responses in GP-2.3 cells expressing wild-type human parathyroid hormone receptor 1 (PTHR-1-WT). […] Data are means (±SEM) of n>4 experiments, each performed in duplicate.
as §1

In the case of `CC[C@H](C)[C@H](NC(=O)[C@H](CCC(=O)O)NC(=O)[C@H](CO)NC(=O)[C@@H](NC(=O)[C@@H](N)CO)C(C)C)C(=O)N[C@@H](CCC(N)=O)C(=O)N[C@@H](CC(C)C)C(=O)N[C@@H](CCSC)C(=O)N[C@@H](Cc1c[nH]cn1)C(=O)N[C@@H](CC(N)=O)C(=O)N[C@@H](CC(C)C)C(=O)NCC(=O)N[C@@H](CCCCN)C(=O)N[C@@H](Cc1c[nH]cn1)C(=O)N[C@@H](CC(C)C)C(=O)N[C@@H](CC(N)=O)C(=O)N[C@@H](CO)C(=O)N[C@@H](CCSC)C(=O)N[C@@H](CCC(=O)O)C(=O)N[C@@H](CCCNC(=N)N)C(=O)N[C@H](C(=O)N[C@@H](CCC(=O)O)C(=O)N[C@H](CC(=O)N[C@@H](CC(C)C)C(=O)N[C@@H](CCCNC(=N)N)C(=O)N[C@@H](CCCCN)C(=O)N[C@@H](CCCCN)CC(=O)N[C@@H](CC(C)C)C(=O)N[C@@H](CCC(N)=O)C(=O)N[C@@H](CC(=O)O)C(=O)N[C@H](CC(=O)N[C@@H](Cc1c[nH]cn1)C(=O)N[C@@H](CC(N)=O)C(=O)N[C@@H](Cc1ccccc1)C(N)=O)C(C)C)Cc1c[nH]c2ccccc12)C(C)C` [A3], the Max (WT rat PTHR-1) is reported as 74 ± 101 luminescence counts per second × 10−3, the “cAMP (hPTHR-1) Max” value (WT human PTHR-1) is reported as 1.07 and the Max (WT human PTHR-1) is reported as 232 ± 15 luminescence counts per second × 10^−3. The “agonist activity at hPTHR-1 (cAMP response), in words” value (WT human PTHR-1; maximum cAMP response compared with PTH(1-34)) was “full agonists of hPTHR-1”.

For `CC[C@H](C)[C@H](NC(=O)[C@H](CCC(=O)O)NC(=O)[C@H](CO)NC(=O)[C@@H](NC(=O)[C@@H](N)CO)C(C)C)C(=O)N[C@@H](CCC(N)=O)C(=O)N[C@@H](CC(C)C)C(=O)N[C@@H](CCSC)C(=O)N[C@@H](Cc1c[nH]cn1)C(=O)N[C@@H](CC(N)=O)C(=O)N[C@@H](CC(C)C)C(=O)NCC(=O)N[C@@H](CCCCN)C(=O)N[C@@H](Cc1c[nH]cn1)C(=O)N[C@H](CC(=O)N[C@@H](CC(N)=O)C(=O)N[C@@H](CO)C(=O)N[C@@H](CCSC)C(=O)N[C@@H](CCC(=O)O)CC(=O)N[C@@H](CCCNC(=N)N)C(=O)N[C@H](C(=O)N[C@@H](CCC(=O)O)C(=O)N[C@H](CC(=O)N[C@@H](CC(C)C)C(=O)N[C@@H](CCCNC(=N)N)C(=O)N[C@@H](CCCCN)C(=O)N[C@@H](CCCCN)CC(=O)N[C@@H](CC(C)C)C(=O)N[C@@H](CCC(N)=O)C(=O)N[C@@H](CC(=O)O)C(=O)N[C@H](CC(=O)N[C@@H](Cc1c[nH]cn1)C(=O)N[C@@H](CC(N)=O)C(=O)N[C@@H](Cc1ccccc1)C(N)=O)C(C)C)Cc1c[nH]c2ccccc12)C(C)C)CC(C)C` [A5], the Max (WT rat PTHR-1) was 54 ± 26 luminescence counts per second × 10−3, the EC50 (WT human PTHR-1) was 1.66 nM and the “cAMP (hPTHR-1) Max” value (WT human PTHR-1) was 1.12. For the same molecule, the Max (WT human PTHR-1) was 244 ± 32 luminescence counts per second × 10^−3.

`CC[C@H](C)[C@H](NC(=O)[C@H]1CCC[C@@H]1NC(=O)[C@H](CO)NC(=O)[C@@H](NC(=O)[C@@H](N)CO)C(C)C)C(=O)N[C@@H](CCC(N)=O)C(=O)N[C@@H](CC(C)C)C(=O)N[C@@H](CCSC)C(=O)N[C@@H](Cc1c[nH]cn1)C(=O)N[C@@H](CC(N)=O)C(=O)N[C@@H](CC(C)C)C(=O)NCC(=O)N[C@@H](CCCCN)C(=O)N[C@@H](Cc1c[nH]cn1)C(=O)N[C@@H](CC(C)C)C(=O)N[C@@H](CC(N)=O)C(=O)N[C@@H](CO)C(=O)N[C@@H](CCSC)C(=O)N[C@@H](CCC(=O)O)C(=O)N[C@@H](CCCNC(=N)N)C(=O)N[C@H](C(=O)N[C@@H](CCC(=O)O)C(=O)N[C@@H](Cc1c[nH]c2ccccc12)C(=O)N[C@@H](CC(C)C)C(=O)N[C@@H](CCCNC(=N)N)C(=O)N[C@@H](CCCCN)C(=O)N[C@@H](CCCCN)C(=O)N[C@@H](CC(C)C)C(=O)N[C@@H](CCC(N)=O)C(=O)N[C@@H](CC(=O)O)C(=O)N[C@H](C(=O)N[C@@H](Cc1c[nH]cn1)C(=O)N[C@@H](CC(N)=O)C(=O)N[C@@H](Cc1ccccc1)C(N)=O)C(C)C)C(C)C` [ACPC(4)] (H-SVS[X12]IQLMHNLGKHLNSMERVEWLRKKLQDVHNF-NH2; N-terminus assumed) was tested, and the “hPTHR1 EC50, nM (Means ± SEM)” value (WT human PTHR-1; Table 8, cAMP-inducing potency, N-terminal modifications) was “No activity”.

For `CC[C@H](C)[C@H](NC(=O)[C@H](CO)NC(=O)[C@H](CCCCN)NC(=O)CNC(=O)[C@H](CCCCN)NC(=O)[C@H](CC(=O)O)NC(=O)[C@H](Cc1c[nH]cn1)NC(=O)[C@H](CC(C)C)NC(=O)[C@H]1CCC[C@@H]1NC(=O)[C@H](CCC(N)=O)NC(=O)[C@H]1CCC[C@@H]1NC(=O)[C@H](CCC(=O)O)NC(=O)[C@H](CO)NC(=O)[C@@H](NC(=O)[C@H]1CCC[C@@H]1N)C(C)C)C(=O)N[C@@H](CCC(N)=O)C(=O)N[C@@H](CC(=O)O)C(=O)N[C@@H](CC(C)C)C(=O)N[C@@H](CCCNC(=N)N)C(=O)N[C@@H](CCCNC(=N)N)C(=O)N[C@@H](CCCNC(=N)N)C(=O)N[C@@H](CCC(=O)O)C(=O)N[C@@H](CC(C)C)C(=O)N[C@@H](CC(C)C)C(=O)N[C@@H](CCC(=O)O)C(=O)N[C@@H](CCCCN)C(=O)N[C@@H](CC(C)C)C(=O)N[C@@H](CC(C)C)C(=O)NC(C)(C)C(=O)N[C@@H](CCCCN)C(=O)N[C@@H](CC(C)C)C(=O)N[C@@H](Cc1c[nH]cn1)C(=O)N[C@H](C(=O)N[C@@H](C)C(N)=O)[C@@H](C)O` [BA058 ACPC(1,5,7), XVSEXQXLHDKGKSIQDLRRRELLEKLLUKLHTA-NH2] ({ACPC(1S,2S)}-VSE[X12]Q[X12]LHDKGKSIQDLRRRELLEKLL[Aib]KLHTA-NH2; N-terminus assumed), the EC50 (WT human PTHR-1; read-out: cAMP EC50) was 0.26 nM.

With `CC[C@H](C)[C@H](NC(=O)[C@H]1CCC[C@@H]1NC(=O)[C@H](CCCCN)NC(=O)CNC(=O)[C@H](CCCCN)NC(=O)[C@H](CC(=O)O)NC(=O)[C@H](Cc1cnc[nH]1)NC(=O)[C@H](CC(C)C)NC(=O)[C@H]1CCC[C@@H]1NC(=O)[C@H](CCC(N)=O)NC(=O)[C@H]1CCC[C@@H]1NC(=O)[C@H](CCC(=O)O)NC(=O)[C@H](CO)NC(=O)[C@@H](NC(=O)[C@H]1CCC[C@@H]1N)C(C)C)C(=O)N[C@@H](CCC(N)=O)C(=O)N[C@@H](CC(=O)O)C(=O)N[C@H]1CCC[C@@H]1C(=O)N[C@@H](CCCNC(=N)N)C(=O)N[C@@H](CCCNC(=N)N)C(=O)N[C@@H](CCCNC(=N)N)C(=O)N[C@H]1CNC[C@@H]1C(=O)N[C@@H](CC(C)C)C(=O)N[C@@H](CC(C)C)C(=O)N[C@@H](CCC(=O)O)C(=O)N[C@H]1CNC[C@@H]1C(=O)N[C@@H](CC(C)C)C(=O)N[C@@H](CC(C)C)C(=O)NC(C)(C)C(=O)N[C@H]1CCC[C@@H]1C(=O)N[C@@H](CC(C)C)C(=O)N[C@@H](Cc1cnc[nH]1)C(=O)N[C@H](C(=O)N[C@H]1CCC[C@@H]1C(N)=O)[C@@H](C)O` [CycD6 BA058 ACPC(1,5,7), XVSEXQXLHDKGKXIQDXRRRZLLEZLLUXLHTX-NH2] ({ACPC(1S,2S)}-VSE[X12]Q[X12]LHDKGK[X12]IQD[X12]RRR[X13]LLE[X13]LL[Aib][X12]LHT-{NH(1S,2S-2-CONH2-cPent)}) the EC50 (WT human PTHR-1; read-out: cAMP EC50) was 0.65 nM.
